{"source": "patent US20190328721A1", "about": "“METHOD OF ACTIVATING DENDRITIC CELLS” (KOREA INSTITUTE OF SCIENCE AND TECHNOLOGY, priority 2018, published 2019)", "key": {"[1]": {"test_system": "B16F10-Ova cells", "assay": "Annexin V flow cytometry for direct death of cancer cells", "type": "cell-based, mouse", "conditions": "30 μM, 24 hours", "description": "(§1) Specifically, the present inventors treated CT26.CL25 cells and B16F10-Ova cells with 30 μM of the ROCK inhibitor Y27632 for 24 hours, and performed flow cytometry analysis using FITC-anti-Annexin V antibodies (Abcam, USA). On the other hand, cells were treated with 10 μg of TRAIL, 0.25 μM of doxorubicin, 2.5 μM of doxorubicin, or 25 μM of doxorubicin, respectively, for 4 hours, as positive controls."}, "[2]": {"test_system": "CT26.CL25 cells", "assay": "Annexin V flow cytometry for direct death of cancer cells", "type": "cell-based, mouse", "conditions": "30 μM, 24 hours", "description": "as §1"}, "[3]": {"test_system": "macrophages (F4/80+ cells) and dendritic cells (CD11c+ cells)", "assay": "In vivo phagocytosis of injected apoptotic thymocytes by spleen phagocytes", "set-up": "species or system mice", "conditions": "10 mg/kg intraperitoneally; spleen after 1 hour", "description": "The present inventors investigated whether the phagocytosis caused by the ROCK inhibitor could be enhanced not only in vitro but also in vivo. For this purpose, thymocytes stained with CFSE (carboxyfluorescein succinimidyl ester, Thermo Fisher Scientific, Inc., USA) and in which apoptosis was induced by 1 μM dexamethasone were injected to the blood vessel of mice who were pre-injected with 10 mg/kg of Y27632 intraperitoneally. After 1 hour, the spleen was extracted from the mice and the spleen was single celled. The phagocytic activities of macrophages (F4/80^+ cells) and dendritic cells (CD11c^+ cells) against apoptotic thymocytes were analyzed (FIGS. 7B and 7C)."}, "[4]": {"test_system": "CT26.CL25 cancer cell line", "assay": "CT26.CL25 tumor model with depletion of immune cells", "type": "in vivo, mice", "conditions": "10 mg/kg intravenous", "description": "Specifically, tumor model mice were prepared by subcutaneously injecting 1×10^6 cells of CT26.CL25 cancer cell line expressing β-galactosidase into wild type mice by subcutaneous injection into the left side or the like.\nFor the depletion of phagocytic cells in the tumor model mice, 200 μl of control liposome (FormuMax Scientific, Inc., USA) or 200 μl of clodronate liposome (FormuMax Scientific, Inc., USA) were injected intraperitoneally 5 days after cancer cell injection, and then 100 μl of the liposomes were intraperitoneally injected at intervals of 4 days until the end of the experiment Similarly, for the depletion of CD8 T cells or CD4 T cells, 200 μg of anti-CD8a antibodies (clone 2.43, bioXcell) or anti-CD4 antibodies (Clone GK 1.5, bioXcell, USA) were intraperitoneally injected (FIGS. 10A and 10B) to the tumor model mice. As a negative control, only the carrier (PBS) or the rat-derived nonspecific antibodies (rIgG, Clone LTF-2, bioXcell, USA) was administered to the tumor model mice.\nFrom the 6th day after the injection of the cancer cells, Y27632 was administered at a dose of 10 mg/kg continuously for two consecutive days via intravenous injection, followed by a day of rest as a cycle, followed by 3 cycles of 3-day intervals. Mice were sacrificed 22 days after the injection of cancer cells, the tumor tissues were excised, and ex vivo images were taken, and the tumor tissues were weighed. Before the sacrifice of the mice, the volume of the tumor over time was calculated as described above (FIGS. 10E and 10F). […] Thus, we confirmed that the therapeutic effect of ROCK inhibitors appears to require CD8 T cells. […] As a control, a rat-derived nonspecific antibody (rIgG, BioXcell, USA) was used."}, "[5]": {"test_system": "CT26.CL25 colon cancer cells expressing mCherry", "assay": "Phagocytosis of mCherry-expressing cancer cells in the tumor model", "type": "in vivo, mice", "conditions": "conditions of Example 2-3", "description": "In order to confirm whether or not the ROCK inhibitor Y27632 induces cancer cell phagocytosis in a tumor model, CT26.CL25 colon cancer cells expressing mCherry were prepared and used to create a tumor model by injecting tumor cells into mice, and it was analyzed whether phagocytosis of macrophages and dendritic cells against cancer cells expressing mCherry was increased under the same conditions as in Example 2-3."}, "[6]": {"test_system": "bone marrow-derived dendritic cells (BMDCs)", "assay": "BMDC maturation markers CD40 and CD86 in vitro", "type": "cell-based, mice", "conditions": "30 μM, 1 hour", "description": "In addition, the present inventors used pretreatment with 30 μM of Y27632 for 1 hour of bone marrow-derived dendritic cells (BMDCs) stained with cell marker CellTracker CMFDA (Thermo Fisher Scientific, Inc., USA) and then removed floating tumor cells by withdrawing removing the supernatant. Twenty hours later, the expression of CD40 and CD86 was analyzed by flow cytometry.\nThe present inventors then investigated whether dendritic cell maturation was promoted by the combination treatment of doxorubicin and Y27632. Specifically, 30 μM of Y27632 was used to pretreat bone marrow-derived dendritic cells (BMDC) stained with CellTracker CMFDA (Thermo Fisher Scientific, USA) for 1 hour, and then doxorubicin-treated CT26.CL25 was co-cultured for 4 hours, and floating cancer cells were removed by withdrawing supernatant. The expression level of CD40 and CD86, which are dendritic cell maturation markers, was analyzed by flow cytometry after 20 hours."}, "[7]": {"test_system": "B16F10-Ova", "assay": "B16F10-Ova tumor model, Y27632 combined with a chemotherapeutic", "type": "in vivo, mice", "conditions": "doxorubicin 5 mg/kg, Y27632 10 mg/kg", "description": "Specifically, tumor suppression was examined by administering 5 mg/kg of doxorubicin and 10 mg/kg of Y27632 alone or in combination to B16F10-Ova-bearing tumor model mice prepared as in Example 2-1. Doxorubicin was administered three times at intervals of 3 days from the 8th day after the injection of cancer cells, and Y27632 was administered at a dose of 10 mg/kg continuously for two consecutive days via intravenous injection followed by a day of rest as a cycle, followed by 3 cycles of 3-day intervals (FIG. 18A). The mice were sacrificed on the 20th day after the injection of cancer cells, the tumor tissue was excised, and ex vivo images were taken and the tumor tissues were weighed. Before the sacrifice of the mice, the tumor volumes over time were calculated as described above using calipers at intervals of 3 days from the 8th day after the injection of the cancer cells.\nIn order to confirm whether CD8^+ T cells infiltrates into tumor tissues, tumor tissues excised from an experimental animal were sectioned and subjected to fluorescence immunohistochemistry using anti-CD8 antibodies.\nFirst, to determine the cisplatin therapeutic concentration, a B16F10-Ova tumor model was constructed in a nude mouse lacking T cell immunity and then an experiment was conducted to confirm the concentration of cisplatin having an anticancer effect similar to that of doxorubicin at 5 mg/kg. […] Thus, in order to evaluate the therapeutic effect of cisplatin and the ROCK inhibitor Y27632 in the B16F10-Ova-bearing tumor model, 3 mg/kg of cisplatin was administered according to the administration schedule shown in FIG. 18A."}}, "data": [{"smiles": "C[C@@H](N)[C@H]1CC[C@H](C(=O)Nc2ccncc2)CC1", "note": "[Y27632]", "values": [{"measurement": "death of cancer cells (Annexin V)", "setting": "[1]", "result": "not to increase the death of cancer cells"}, {"measurement": "death of cancer cells (Annexin V)", "setting": "[2]", "result": "not to increase the death of cancer cells"}, {"measurement": "phagocytosis of spleen dendritic cells against apoptotic thymocytes", "setting": "[3]", "result": "significantly enhanced"}, {"measurement": "phagocytosis of spleen macrophages against apoptotic thymocytes", "setting": "[3]", "result": "significantly enhanced"}, {"measurement": "anti-cancer effect when CD8 T cells were depleted by anti-CD8a antibodies", "setting": "[4]", "result": "disappeared"}, {"measurement": "anti-cancer effect when phagocytic cells were depleted by clodronate", "setting": "[4]", "result": "disappeared"}, {"measurement": "anticancer effect when CD4 T cells were deficient", "setting": "[4]", "result": "anticancer effect similar to that in normal mice"}, {"measurement": "phagocytosis of tumor dendritic cells against cancer cells expressing mCherry", "setting": "[5]", "result": "increased about two-fold"}, {"measurement": "phagocytosis of tumor macrophages against cancer cells expressing mCherry", "setting": "[5]", "result": "increased about two-fold"}, {"measurement": "DC maturation (CD40 and CD86 expression) of BMDCs", "setting": "[6]; co-cultivation with CT26.CL25, analysed twenty hours later", "result": "did not increase"}, {"measurement": "dendritic cell maturation (CD40 and CD86) with doxorubicin-treated CT26.CL25", "setting": "[6]; co-culture 4 hours, analysed after 20 hours", "result": "increased"}, {"measurement": "complete regression of the tumor", "setting": "[7]", "result": "not observed"}, {"measurement": "infiltration of CD8+ T cells into tumor tissues", "setting": "[7]", "result": "slight infiltration"}]}]}
